Where two headings read alike, the source gives them in different places.

Series [1] concerns CYP450 enzymes in hiHep cells. Put plainly: CYP induction assay in hiHep cells (q-PCR). Conditions: 48 hours inducer treatment. On the procedure:
Total RNA was extracted to measure the induction of CYP enzymes responding to chemical inducers by q-PCR. Total RNA of cells without inducer treatment were used to measure the expression of CYP450 genes and nuclear receptor genes.
Next, assays were carried out to analyze whether hiHep cells were responsive to CYP inducers.
Transcriptional activation of CYP450 enzymes and many other drug metabolism enzymes are mediated by nuclear receptors including AHR, CAR, and PXR.

Series [2] has as its system hiHep cells. Put plainly: Sandwich culture biliary excretion assay in hiHep cells. The settings on record: sandwich cultured hiHep cells, 10 minutes incubation. The method, then: To prepare sandwich culture, 1×10^5 hiHep cells, primary human hepatocytes, and HFF were seeded in collagen I coated 24 well plate. 200 μL 1.5 mg/ml freshly prepared neutralized collagen gel solution were then poured on cells. After solidification, cells were cultured in Williams' E medium supplemented with 5% FBS, 10 μM TCA and 2 μM cAMP for a further 4 days.
To analyze the biliary excretion index, cells were washed once and then incubate in HBSS buffer or Calcium free HBSS buffer at 37° C. […] Cumulative uptake was stopped by washing with cold HBSS buffer for three times. […] The amount of CLF was quantified by measuring fluorescence at 492 nm and 536 nm with a Synergy 4 microplate reader (Biotek, Winooski, USA). Biliary Excretion Index (BEI) was calculated as: BEI=(AHBSS−AHBSS([…]))/AHBSS×100%.
Membrane transporter-mediated biliary excretion is another important function of hepatocytes for clearance of xenobiotics. Drug clearance through biliary excretion is a critically evaluated property in the selection of drug candidates.

Series [3] relates to hiHep cells. Kind of series: CYP metabolism assay in hiHep cells (LC-MS/MS of metabolic products). The method, then:
(§1) For the measurement of CYP enzyme activities, cells were induced with different compounds for certain drug metabolisms. The supernatants were collected for measurement of metabolized compounds by LC-MS/MS (Agilent 1200 HPLC and ABI 4000 mass-spectrometer).
(§2) Freshly thawed primary human hepatocytes were directly used as a positive control. Cells were incubated with substrate in 200 μl incubation medium at different concentrations for 3 hours at 37° C. To stop the reaction, […] cold methanol was added and centrifuged. The supernatants were collected for measurement of metabolized compounds by LC-MS/MS (Agilent 1200 HPLC and ABI 4000 mass-spectrometer). Total cell protein amount was used to normalize the data. Substrates and metabolized products used for standard curves were commercially purchased.
Freshly thawed primary human hepatocytes were directly used as a positive control.

Another series has as its system hiHep^LT cells. Kind of series: CYP metabolism assay in hiHep^LT cells. Conditions: passage 10. The method, then:
as §1, §2

In another series the test system is MSC-hiHep cells. Put plainly: CYP metabolism assay in AD-MSC-derived hiHep cells. On the procedure:
as §2

For the molecule `Cc1ccc2cc3c(ccc4ccccc43)c3c2c1CC3` [3-methylcholanthrene], the “induction of mRNA expression levels of CYP1A2, CYP2A6, CYP2B6, CYP2C8 and CYP2C9” value in series [1] is given as “markedly induced”.

Take `CC(CCC(=O)NC(CCCCNC(=S)Nc1ccc(-c2c3ccc(=O)cc-3oc3cc(O)ccc23)c(C(=O)O)c1)C(=O)O)C1CCC2C3C(O)CC4CC(O)CCC4(C)C3CC(O)C12C` (stereo not drawn) [CLF, cholyl-lysyl-fluorescein]: the “biliary excretion indices (BEI)” value in the series with hiHep cells [2] is “remarkable”.

Turning to `O=c1ccc2ccccc2o1` [coumarin], the CYP enzyme-dependent metabolism entry with hiHep cells [3] is on record as “showed CYP enzyme-dependent metabolism”.

Consider `COc1ccc2c(c1)[C@]13CCCC[C@@H]1[C@H](C2)N(C)CC3` [dextromethorphan], for which, in the series on hiHep cells [3] (hiHep cells after 48 hours CYP induction, 3 hours incubation), the CYP enzyme-dependent metabolism result is reported as “showed CYP enzyme-dependent metabolism”. For the same molecule, the products of metabolism result in the series with hiHep^LT cells and with MSC-hiHep cells was “not detected” in each case.

As for `CCC1(c2ccccc2)C(=O)NC(=O)NC1=O` [phenobarbital], in series [1], the “induction of CYP3A4 mRNA” value is listed as “relatively low but significant level”; the “induction of mRNA expression levels of CYP1A2, CYP2A6, CYP2B6, CYP2C8 and CYP2C9” value is “markedly induced”.

On to [D-Pen2,5]-enkephalin hydrate [DPDPE], for which, in the series on hiHep cells [2], the “biliary excretion indices (BEI)” value is given as “remarkable”.
